Here are results for 1 compound from patent US20180221371A1, “TREATMENT FOR THE FETUS WITH CONGENITAL HEART DISEASE” (CHILDREN'S NATIONAL MEDICAL CENTER, priority 2015, published 2018).

Structures are written as SMILES. “Also recorded” adds a separate entry of the source.

The conditions of series [1]: in vivo; cited from earlier work.
The subject of series [2] is apoptotic cells (Caspase3 positive). In words: Apoptotic cell density (Caspase3 positive) in white matter, mouse model of chronic hypoxia. It is filed as in vivo, mice. The source says:
(§1) FIG. 3. Correspondence between human and rodent gestation periods. Regarding WM development, postnatal days 3-11 in mice correspond to the 3rd trimester of human pregnancy. The murine model was used by the inventors to investigate the effects of hypoxia and treatment of hypoxia by BH4. A mouse model of chronic hypoxia during a period that corresponds to the 3rd trimester in human white matter development is described by […], et al ^47 and by Raymond, et al. ^48, both of which are incorporated by reference. Three groups of mice: Normoxic controls (Nx), Hypoxic (Hx), Hypoxic treated with BH4 (Hx-BH4). Hx and Hx-BH4 mice were kept at 10.5% FiO2 from postnatal day 3 to 11-a period of WM development equivalent to the 3rd trimester in humans as illustrated by FIG. 3. BH4 brain levels were quantified and compared between Nx (n=11) and Hx (n=12). Densities of cells expressing CNP, a marker of oligodendrocytes which are cells responsible for myelination, and Caspase3, an apoptosis marker, were compared between all groups (n=3-6 each). Expression of myelin basic protean, a myelination marker, was quantified using Western Blot (n=7-12 each).

Series [3] concerns WM integrity and damage. To be noted: in vivo; cited from earlier work.
For series [4], the system named is Myelin Basic Protein. As to the kind of experiment: Expression of myelin basic protein (Western blot, immunohistochemistry), mouse model of chronic hypoxia. It is filed as in vivo, mice.
Excerpt: as §1

The subject of series [5] is oligodendrocytes (CNP positive cells). In words: Oligodendrocyte density (CNP positive cells) in white matter, mouse model of chronic hypoxia. Format: in vivo, mice. The settings on record: Hx-BH4 vs Hx; 10.5% FiO2 postnatal day 3 to 11; n=3-6 each.
Excerpt: as §1

The conditions of series [6]: cited from earlier work.

As for `C[C@H](O)[C@H](O)[C@H]1CNc2nc(N)[nH]c(=O)c2N1` [BH4, Tetrahydrobiopterin], the “Placental crossing and fetal tissue distribution” value in series [1] was “crosses the placenta and distributes throughout fetal tissues, including the brain”. Moreover, the “Effect of BH4 treatment on hypoxia-increased WM apoptosis (apoptotic cell density)” value in series [2] (Hx-BH4 vs Hx, p=0.01, 10.5% FiO2 postnatal day 3 to 11, n=3-6 each) is reported as “mitigate this effect; also recorded: decreased with BH4 treatment”. In addition, the “Apoptotic cell density, Hx-BH4 compared with normoxic controls” value in series [2] (Hx-BH4 vs Nx) was “no difference in apoptotic cell density between Nx and Hx-BH4”. Also, the “WM integrity and damage in children with phenylketonuria treated early” value in series [3] is “Improvements of WM integrity and damage”. The “Effect of BH4 treatment on hypoxia-decreased expression of myelin basic protein” value in series [4] (Hx-BH4 vs Hx, p=0.006, 10.5% FiO2 postnatal day 3 to 11, n=7-12 each) was “mitigated by BH4 therapy; also recorded: increased with BH4 treatment”. For the same compound, in series [4] (Hx-BH4 vs Nx), the “Expression of myelin basic protein, Hx-BH4 compared with normoxic controls” value was “no significant difference between normoxic controls (Nx) and hypoxic mice treated with BH4 (Hx-BH4)”. In series [5], the “Effect of BH4 treatment on hypoxia-induced increase of oligodendrocyte density” value is listed as “not limited by BH4 therapy; also recorded: did not limit this effect”. Further, in series [6] (humans, wide range of doses), the “Safety and tolerability in long-term follow-up studies” value was “safe and well tolerated”. Besides, the Teratological effects entry in series [6] (in vivo) is listed as “no teratological effects have been documented”. The “Maternal BH4 treatment in pregnant females” value in series [6] (recent trials) was “efficient and safe”.
